Test results from patent US8569372B2, “Method for preventing or treating a disease, disorder or condition induced by retina ischemia” (priority 2011, dated 2013).

Assays:
[1] = test system: cholinergic amacrine cells (ChAT immunoreactivity); experiment: ChAT immunofluorescence of the retina after ischaemia/reperfusion; assay type: in vivo, Wistar rats; settings: 100 μM SAC pre-treatment
Protocol: The rats (200-250 g) were anaesthetized and placed in a stereotaxic frame. The anterior chamber of one eye was cannulated with a 30-gauge needle connected to a 0.9% saline reservoir; this caused a high IOP (HIOP) of 120 mmHg for 60 minutes. Eye fundus whitening and a low ERG response confirmed induction of an ischaemic insult. A sham procedure was carried out on the controls. Drug administration involved the pre-administration (15-minute before 60-minute HIOP induced retinal ischaemia) of SAC (25, 50, 100 μM) or vehicle (saline; control). The ischemic eye of each test rat was treated with or without a single intravitreous injection of 5 μl of the test compound. In addition, SAC (100 μM) was administered to the non-ischaemic eye (normal) to see whether SAC has any adverse effects. In both cases, the paired normal eye was untreated. The rats were sacrificed and intracardially perfused with 0.9% normal saline (w/v). Then the rat retinas were removed, fixed with 4% (w/v) paraformaldehyde for 45 minutes and then transferred to 30% sucrose for cryosectioning. Sampling was carried out one or seven days after the sham-operation or induction of retinal ischaemia. […] The retinal sections were examined using a fluorescence microscope (Olympus BX61, Center Valley, Pa., USA).

[2] = test system: ischaemic retina (HIOP induced retinal ischaemia/reperfusion); experiment: Flash ERG b-wave after high IOP induced retinal ischaemia/reperfusion, intravitreous pre-treatment; assay type: in vivo, Wistar rats; settings: for ERG b-wave ratio (ischaemic eye vs. fellow normal eye): n=6; for pre-ischaemia b-wave ratio baseline (day 0): day 0 baseline
Protocol: All investigations involving the use of animals conformed to the Association for Research in Vision and Ophthalmology Statement for the Use of Animals in Ophthalmology and Vision Research and were approved by the Institutional Review Board of Cheng Hsin General Hospital (Taipei, Taiwan). The six-week-old Wistar rats were kept in an animal house where the humidity was 40-60% and the temperature 19-23° C. They were kept on a 12-hour light/dark cycle with 12 to 15 air changes/hour. The animals were provided with food and water ad libitum.
The rats (200-250 g) were anaesthetized and placed in a stereotaxic frame. The anterior chamber of one eye was cannulated with a 30-gauge needle connected to a 0.9% saline reservoir; this caused a high IOP (HIOP) of 120 mmHg for 60 minutes. Eye fundus whitening and a low ERG response confirmed induction of an ischaemic insult. A sham procedure was carried out on the controls.
Drug administration involved the pre-administration (15-minute before 60-minute HIOP induced retinal ischaemia) of SAC (25, 50, 100 μM) or vehicle (saline; control). The ischemic eye of each test rat was treated with or without a single intravitreous injection of 5 μl of the test compound. In addition, SAC (100 μM) was administered to the non-ischaemic eye (normal) to see whether SAC has any adverse effects. In both cases, the paired normal eye was untreated.
Flash ERG recordings were performed on all rats before retinal ischaemia (day 0), as well as at 1, 3, 5, and 7 days after ischaemia and treatment with or without the defined chemicals. The animals were dark adapted and anaesthetized to do this. A strobe was placed 2 cm in front of the animal to provide a stimulus of 0.5 Hz. Fifteen consecutive responses were recorded at two-second intervals and at 10 kHz; the responses were amplified and averaged using an amplifier P511/regulated power supply RPS 107/stimulator PS22 (Grass-Telefactor; Astro-Med Inc., West Warwick, R.I., USA). For comparative purposes, the b-wave ratio, namely the b-wave amplitude of the ischaemic/sham-operation eye or the untreated/SAC-treated non-ischaemic (normal) eye as compared with that of the contralateral normal eye, was calculated.

ERG b-wave ratio (ischaemic eye vs. fellow normal eye) ([2]; 25 μM SAC, day 1 after I/R, vehicle 0.19±0.03): 0.47±0.10 | ERG b-wave ratio (ischaemic eye vs. fellow normal eye) ([2]; 25 μM SAC, day 3 after I/R, vehicle 0.18±0.05): 0.44±0.11 | ERG b-wave ratio (ischaemic eye vs. fellow normal eye) ([2]; 25 μM SAC, day 5 after I/R, vehicle 0.24±0.05): 0.54±0.09 | ERG b-wave ratio (ischaemic eye vs. fellow normal eye) ([2]; 25 μM SAC, day 7 after I/R, vehicle 0.18±0.02): 0.55±0.06 | ERG b-wave ratio (ischaemic eye vs. fellow normal eye) ([2]; 50 μM SAC, day 1 after I/R, vehicle 0.19±0.03): 0.56±0.03 | ERG b-wave ratio (ischaemic eye vs. fellow normal eye) ([2]; 50 μM SAC, day 3 after I/R, vehicle 0.18±0.05): 0.60±0.05 | ERG b-wave ratio (ischaemic eye vs. fellow normal eye) ([2]; 50 μM SAC, day 5 after I/R, vehicle 0.24±0.05): 0.65±0.02 | ERG b-wave ratio (ischaemic eye vs. fellow normal eye) ([2]; 50 μM SAC, day 7 after I/R, vehicle 0.18±0.02): 0.61±0.05 | ERG b-wave amplitude ([2]; 100 μM SAC intravitreous pre-treatment, 1 day after I/R, sham control 0.35 mV, vehicle 0.08 mV): 0.24 mV | ERG b-wave amplitude, % of the control value ([2]; 100 μM SAC pre-treatment, 1 day after I/R, vehicle 22.86%): 68.57 % of the control value | ERG b-wave ratio (ischaemic eye vs. fellow normal eye) ([2]; 100 μM SAC, day 1 after I/R, vehicle 0.19±0.03): 0.64±0.04 | ERG b-wave ratio (ischaemic eye vs. fellow normal eye) ([2]; 100 μM SAC, day 3 after I/R, vehicle 0.18±0.05): 0.79±0.03 | ERG b-wave ratio (ischaemic eye vs. fellow normal eye) ([2]; 100 μM SAC, day 5 after I/R, vehicle 0.24±0.05): 0.84±0.03 | ERG b-wave ratio (ischaemic eye vs. fellow normal eye) ([2]; 100 μM SAC, day 7 after I/R, vehicle 0.18±0.02): 0.84±0.04 | pre-ischaemia b-wave ratio baseline (day 0) ([2]; group pre-treated with 25 μM SAC): 1.08±0.07 | pre-ischaemia b-wave ratio baseline (day 0) ([2]; group pre-treated with 50 μM SAC): 0.98±0.04 | pre-ischaemia b-wave ratio baseline (day 0) ([2]; group pre-treated with 100 μM SAC): 0.92±0.04
Compound: C=CCSC[C@H](N)C(=O)O [SAC, S-allyl L-cysteine]
ChAT immunopositive amacrine cell bodies per field ([1]; 1 day after I/R, sham 39±3, vehicle 14±1): 26±2 per field | ChAT immunopositive amacrine cell bodies per field ([1]; 7 days after I/R, sham 38±3, vehicle 10±5): 24±5 per field
